Measurements as given in ChEMBL document CHEMBL1201862, “PubChem BioAssay data set” (2004).
Each block holds one compound with its values, some of them ahead of it. Activity calls are given as the source filed them.

Assays:
[1] = target: G-protein coupled receptor 55 (Homo sapiens, UniProt Q9Y2T6); assay: inhibition of LPI-stimulated GPR55 beta-arrestin translocation – imaging, U2OS, beta-arrestin-GFP, LPI agonist, primary screen (AID 2013); format: functional;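 further: antagonist potency measured as reduced agonist-driven arrestin aggregation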
[2] = target: T1, Voltage-gated N-type calcium channel alpha-1B subunit/Amyloid beta A4 precursor protein-binding family A member 1 (Homo sapiens, UniProt Q00975+Q02410); format: protein assay
[3] = target: T1, Voltage-gated N-type calcium channel alpha-1B subunit/Amyloid beta A4 precursor protein-binding family A member 1; format: protein assay; remark: listed apart in the source
[4] = target: T2, Intestinal-type alkaline phosphatase (Homo sapiens, UniProt P09923); assay: activation of human intestinal alkaline phosphatase – biochemical, luminescent, uHTS hits, set 2, dose response (AID 488817); format: functional;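 further: potency of activators that raise enzyme activity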
[5] = target: T2, Intestinal-type alkaline phosphatase; assay: human intestinal alkaline phosphatase activators, dose response, biochemical, luminescence, uHTS hits (AID 463120); format: functional
[6] = viability of uninfected HEp-2 cells – cell-based, HTS, cytotoxicity control for RSV inhibitor project, dose response (AID 2410); format: functional; conditions: human respiratory syncytial virus
[7] = target: T3, Alkaline phosphatase, tissue-nonspecific isozyme (Homo sapiens, UniProt P05186); assay: activation of tissue-nonspecific alkaline phosphatase – biochemical, TNAP isozyme, human IAP uHTS hits, selectivity assay for human IAP activator project, dose response (AID 488886); format: functional;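 further: potency of compounds raising TNAP activity as a selectivity check on IAP activators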
T3 sequence (P05186 whole entry): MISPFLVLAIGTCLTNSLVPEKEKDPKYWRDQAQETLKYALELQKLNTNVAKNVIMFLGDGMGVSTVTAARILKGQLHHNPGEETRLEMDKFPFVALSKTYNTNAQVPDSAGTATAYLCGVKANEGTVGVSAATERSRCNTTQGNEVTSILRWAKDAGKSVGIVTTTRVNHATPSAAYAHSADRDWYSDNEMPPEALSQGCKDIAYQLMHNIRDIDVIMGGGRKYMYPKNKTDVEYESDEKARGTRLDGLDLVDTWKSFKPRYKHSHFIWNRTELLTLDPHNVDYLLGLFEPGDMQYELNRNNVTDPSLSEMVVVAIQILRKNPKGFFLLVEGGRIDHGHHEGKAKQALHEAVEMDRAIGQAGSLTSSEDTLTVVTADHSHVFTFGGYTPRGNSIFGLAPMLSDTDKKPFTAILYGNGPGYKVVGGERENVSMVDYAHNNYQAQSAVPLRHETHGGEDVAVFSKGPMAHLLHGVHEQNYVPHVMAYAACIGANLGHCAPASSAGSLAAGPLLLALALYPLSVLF

[8] = target: Intestinal-type alkaline phosphatase (Mus musculus, UniProt P24822); assay: PubChem AID 488875; format: functional
[9] = target: T4, Kappa-type opioid receptor (Homo sapiens, UniProt P41145); assay: SAR analysis of small molecule antagonists of the kappa opioid receptor via a luminescent beta-arrestin assay - Set 3. [Related pubchem assays (depositor defined):AID1777, AID1778, AID1785, AID1786, AID1966, AID2133, AID2136, AID2285, AID2495]; format: functional
Mu-type opioid receptor = Mu-type opioid receptor (Homo sapiens, UniProt P35372); assay: SAR Analysis of Antagonists of the MOR Receptor using an Image-Based Assay - Set 3. [Related pubchem assays (depositor defined):AID1777, AID1785, AID1786, AID1966, AID2133, AID2136, AID2284, AID2285, AID2420]; format: functional
[10] = target: Delta-type opioid receptor (Homo sapiens, UniProt P41143); assay: SAR Analysis of Antagonists of the DOR Receptor using an Image-Based Assay - Set 3. [Related pubchem assays (depositor defined):AID1777, AID1785]; format: functional;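 further: U2OS cells expressing DOR1 and beta-arrestin GFP stimulated with 100 nM SNC80; imaging of GFP-tagged beta-arrestin moving into spots after receptor activation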
[11] = target: T4, Kappa-type opioid receptor; assay: SAR analysis of Antagonists of the Kappa Opioid Receptor (KOR) using an Image-Based Assay - Set 4. [Related pubchem assays (depositor defined):AID1777, AID1785]; format: functional

T1 sequence (Q00975 whole entry): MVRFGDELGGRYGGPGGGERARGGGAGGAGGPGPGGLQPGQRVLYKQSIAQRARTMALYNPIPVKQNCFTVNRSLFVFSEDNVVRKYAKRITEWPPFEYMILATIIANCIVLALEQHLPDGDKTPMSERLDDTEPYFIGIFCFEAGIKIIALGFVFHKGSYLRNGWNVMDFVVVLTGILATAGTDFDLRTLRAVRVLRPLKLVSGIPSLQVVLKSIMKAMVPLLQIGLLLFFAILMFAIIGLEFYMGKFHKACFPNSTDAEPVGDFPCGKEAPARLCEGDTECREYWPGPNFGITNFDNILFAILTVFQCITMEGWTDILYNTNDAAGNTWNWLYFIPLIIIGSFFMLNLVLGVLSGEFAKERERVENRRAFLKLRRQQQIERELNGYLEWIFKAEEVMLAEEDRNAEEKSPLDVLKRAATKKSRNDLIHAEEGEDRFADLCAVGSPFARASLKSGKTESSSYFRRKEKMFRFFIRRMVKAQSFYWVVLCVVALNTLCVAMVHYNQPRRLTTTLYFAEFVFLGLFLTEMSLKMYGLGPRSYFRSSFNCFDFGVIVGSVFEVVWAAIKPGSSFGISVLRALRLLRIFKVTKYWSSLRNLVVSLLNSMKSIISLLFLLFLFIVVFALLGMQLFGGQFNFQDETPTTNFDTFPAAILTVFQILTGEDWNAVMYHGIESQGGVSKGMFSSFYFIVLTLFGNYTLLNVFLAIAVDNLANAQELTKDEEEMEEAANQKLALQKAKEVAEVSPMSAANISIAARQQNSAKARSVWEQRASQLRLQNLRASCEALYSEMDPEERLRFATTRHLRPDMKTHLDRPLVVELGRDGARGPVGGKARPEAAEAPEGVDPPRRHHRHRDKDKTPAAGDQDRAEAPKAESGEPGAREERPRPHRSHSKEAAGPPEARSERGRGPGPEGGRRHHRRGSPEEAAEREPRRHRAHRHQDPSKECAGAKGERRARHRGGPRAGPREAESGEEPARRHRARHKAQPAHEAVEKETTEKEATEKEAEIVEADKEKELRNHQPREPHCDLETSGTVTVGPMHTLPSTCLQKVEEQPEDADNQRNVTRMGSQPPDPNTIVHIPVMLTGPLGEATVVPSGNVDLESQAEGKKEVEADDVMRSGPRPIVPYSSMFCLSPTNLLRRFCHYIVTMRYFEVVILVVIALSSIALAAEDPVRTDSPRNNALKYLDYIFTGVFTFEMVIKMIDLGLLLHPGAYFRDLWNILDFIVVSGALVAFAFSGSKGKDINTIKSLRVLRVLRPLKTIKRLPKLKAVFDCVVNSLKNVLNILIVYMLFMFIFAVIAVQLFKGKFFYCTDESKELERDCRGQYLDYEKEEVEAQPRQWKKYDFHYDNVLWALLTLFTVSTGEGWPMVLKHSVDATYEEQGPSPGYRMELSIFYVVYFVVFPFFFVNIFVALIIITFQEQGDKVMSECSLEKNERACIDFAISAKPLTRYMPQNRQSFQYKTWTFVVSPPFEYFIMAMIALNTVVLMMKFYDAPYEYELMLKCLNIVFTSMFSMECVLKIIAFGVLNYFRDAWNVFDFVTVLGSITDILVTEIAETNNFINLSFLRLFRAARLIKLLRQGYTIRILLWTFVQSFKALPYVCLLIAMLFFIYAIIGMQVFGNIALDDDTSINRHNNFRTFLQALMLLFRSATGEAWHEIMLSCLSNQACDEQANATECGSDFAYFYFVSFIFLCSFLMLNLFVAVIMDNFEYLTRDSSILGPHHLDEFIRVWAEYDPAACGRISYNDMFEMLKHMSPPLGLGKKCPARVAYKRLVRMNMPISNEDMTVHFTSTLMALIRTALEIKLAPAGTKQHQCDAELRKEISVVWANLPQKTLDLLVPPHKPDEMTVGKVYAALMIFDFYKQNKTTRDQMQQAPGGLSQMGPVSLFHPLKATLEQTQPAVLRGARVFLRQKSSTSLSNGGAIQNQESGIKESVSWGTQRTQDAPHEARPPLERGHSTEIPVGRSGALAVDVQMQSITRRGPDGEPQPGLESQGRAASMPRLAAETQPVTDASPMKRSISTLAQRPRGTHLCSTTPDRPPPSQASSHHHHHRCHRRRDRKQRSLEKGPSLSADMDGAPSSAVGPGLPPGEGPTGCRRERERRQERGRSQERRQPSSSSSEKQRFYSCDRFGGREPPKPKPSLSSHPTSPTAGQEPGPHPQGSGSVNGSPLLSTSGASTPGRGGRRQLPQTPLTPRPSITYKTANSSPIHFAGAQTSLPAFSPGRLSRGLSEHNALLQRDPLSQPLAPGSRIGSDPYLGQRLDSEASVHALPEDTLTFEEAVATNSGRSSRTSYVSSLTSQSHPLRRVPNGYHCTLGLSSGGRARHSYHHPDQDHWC
T1 sequence (Q02410 whole entry): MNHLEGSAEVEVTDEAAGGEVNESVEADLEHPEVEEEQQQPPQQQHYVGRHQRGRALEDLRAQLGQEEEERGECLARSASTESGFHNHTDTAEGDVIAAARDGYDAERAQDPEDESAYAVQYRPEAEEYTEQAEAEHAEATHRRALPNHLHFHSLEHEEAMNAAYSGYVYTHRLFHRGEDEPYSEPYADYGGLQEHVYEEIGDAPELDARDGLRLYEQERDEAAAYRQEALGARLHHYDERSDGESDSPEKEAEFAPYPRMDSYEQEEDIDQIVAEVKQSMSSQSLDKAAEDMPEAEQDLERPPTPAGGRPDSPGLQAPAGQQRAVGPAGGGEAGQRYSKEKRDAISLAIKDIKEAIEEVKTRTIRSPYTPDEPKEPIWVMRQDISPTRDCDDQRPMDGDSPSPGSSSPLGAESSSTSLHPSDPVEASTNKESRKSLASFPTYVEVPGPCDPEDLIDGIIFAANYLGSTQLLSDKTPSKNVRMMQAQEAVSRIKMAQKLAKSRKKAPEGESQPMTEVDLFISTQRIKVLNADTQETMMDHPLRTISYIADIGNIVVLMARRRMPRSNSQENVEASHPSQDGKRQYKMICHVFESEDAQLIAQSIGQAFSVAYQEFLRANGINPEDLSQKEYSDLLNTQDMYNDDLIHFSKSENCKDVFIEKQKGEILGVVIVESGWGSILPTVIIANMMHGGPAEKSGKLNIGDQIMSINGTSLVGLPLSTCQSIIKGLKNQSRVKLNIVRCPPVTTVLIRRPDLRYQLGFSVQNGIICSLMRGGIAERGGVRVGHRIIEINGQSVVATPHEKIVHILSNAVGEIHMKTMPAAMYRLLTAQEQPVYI
T4 sequence (P41145 whole entry): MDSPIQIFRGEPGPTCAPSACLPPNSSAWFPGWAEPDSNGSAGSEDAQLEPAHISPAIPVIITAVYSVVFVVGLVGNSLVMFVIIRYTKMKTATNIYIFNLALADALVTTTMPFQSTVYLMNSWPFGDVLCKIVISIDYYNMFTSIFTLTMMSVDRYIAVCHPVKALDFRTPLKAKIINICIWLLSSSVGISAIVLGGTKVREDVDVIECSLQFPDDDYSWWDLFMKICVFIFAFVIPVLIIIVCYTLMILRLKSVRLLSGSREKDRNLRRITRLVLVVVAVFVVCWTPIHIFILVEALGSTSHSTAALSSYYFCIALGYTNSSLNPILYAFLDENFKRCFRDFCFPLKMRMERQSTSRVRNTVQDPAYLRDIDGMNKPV
T2 sequence (P09923 whole entry): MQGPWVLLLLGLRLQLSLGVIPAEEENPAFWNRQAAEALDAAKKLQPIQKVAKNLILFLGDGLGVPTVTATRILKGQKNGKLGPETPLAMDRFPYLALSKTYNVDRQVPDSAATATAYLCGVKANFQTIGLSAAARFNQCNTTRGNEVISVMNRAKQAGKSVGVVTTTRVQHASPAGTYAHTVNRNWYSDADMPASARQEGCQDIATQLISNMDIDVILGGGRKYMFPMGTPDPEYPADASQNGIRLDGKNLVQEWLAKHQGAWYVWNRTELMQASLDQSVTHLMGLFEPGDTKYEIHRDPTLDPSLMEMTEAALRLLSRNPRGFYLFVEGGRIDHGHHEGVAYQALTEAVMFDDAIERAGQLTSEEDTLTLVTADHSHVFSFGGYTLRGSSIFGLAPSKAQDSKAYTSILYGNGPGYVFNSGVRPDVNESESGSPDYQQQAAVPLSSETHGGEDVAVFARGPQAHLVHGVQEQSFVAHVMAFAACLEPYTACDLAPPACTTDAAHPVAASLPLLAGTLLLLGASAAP
Chain of Delta-type opioid receptor (P41143 whole entry): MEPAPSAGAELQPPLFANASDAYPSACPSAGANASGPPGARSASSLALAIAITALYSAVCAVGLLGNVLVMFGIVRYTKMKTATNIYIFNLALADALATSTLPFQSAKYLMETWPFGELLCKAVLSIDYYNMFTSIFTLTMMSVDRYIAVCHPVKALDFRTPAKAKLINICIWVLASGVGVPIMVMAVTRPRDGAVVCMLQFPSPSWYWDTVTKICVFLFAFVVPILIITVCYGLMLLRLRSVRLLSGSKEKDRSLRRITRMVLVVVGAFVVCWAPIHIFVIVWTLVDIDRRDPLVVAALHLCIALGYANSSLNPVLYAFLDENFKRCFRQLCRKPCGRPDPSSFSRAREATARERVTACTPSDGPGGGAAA
Chain of G-protein coupled receptor 55 (Q9Y2T6 whole entry): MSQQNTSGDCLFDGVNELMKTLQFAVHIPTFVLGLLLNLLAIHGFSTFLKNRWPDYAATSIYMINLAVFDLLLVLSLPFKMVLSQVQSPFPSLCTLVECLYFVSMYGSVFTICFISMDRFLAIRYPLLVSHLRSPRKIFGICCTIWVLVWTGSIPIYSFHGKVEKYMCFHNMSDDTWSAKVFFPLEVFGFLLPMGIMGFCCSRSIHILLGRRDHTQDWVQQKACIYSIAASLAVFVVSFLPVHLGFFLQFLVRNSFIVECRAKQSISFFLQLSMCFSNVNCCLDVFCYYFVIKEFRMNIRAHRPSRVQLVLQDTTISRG

IC50 [1]: 4.61 µM (active)
SMILES: Nc1ncc(-c2nnnn2-c2ccc(Cl)cc2)c(-c2ccc(Cl)cc2)n1

IC50 [2]: > 50 µM (inactive)
IC50 [3]: 15.5 µM (active)
SMILES: CC(=O)c1cccc(NC(=O)c2cc(-c3ccc(C)cc3)on2)c1

EC50 [4]: 65.5 µM (active)
EC50 [5]: 23.1 µM (active)
EC50 [7]: 53.2 µM (active)
EC50 [8]: > 100 µM (inactive)
SMILES: COc1ccccc1CCNC(=O)C1CCN(c2nnc(C)c3c(C)n(-c4ccc(C)cc4)nc23)CC1
CC50 [6]: 17.4 µM (active)

IC50 [9]: 3.05 µM (active)
IC50 (Mu-type opioid receptor): 10.3 µM (inactive)
IC50 [10]: > 32 µM (inactive)
IC50 [11]: 693 nM (active)
SMILES: COc1ccc(N2CCN(CCCNC(=O)Cn3c(=O)c4cccn4c4cc(Br)cnc43)CC2)cc1
